ED90, IC50 and inhibition data for 19 compounds are collected here from ChEMBL document CHEMBL1127172, “Novel pseudosymmetric inhibitors of HIV-1 protease” (Bioorg Med Chem Lett, 1993).

For one experiment, the system named is MT2. Briefly: The compound was tested for its antiviral activity against HIV-1LAV virus infected MT-2 cells. Format: functional, Homo sapiens.
Experiment [1] deals with Human immunodeficiency virus type 1 protease (Human immunodeficiency virus 1, UniProt Q72874). In words: In vitro inhibition of HIV-1 protease at pH 6 using 164 uM peptide substrate.
Experiment [2] deals with Human immunodeficiency virus type 1 protease (Human immunodeficiency virus 1) (UniProt Q72874). Briefly: The compound was tested in vitro for the % inhibition of HIV-1 protease at 100 uM concentration.
For experiment [3], the system named is Human immunodeficiency virus 1. Briefly: Antiviral activity against HIV-1 LAV virus infected MT-2 cells with reference to AZT (ED90=0.3 uM). Format: functional, MT2.
The target of another experiment is Cathepsin D (Homo sapiens, UniProt P07339). Briefly: The compound was tested for its inhibitory activity against human cathepsin D.
For a further experiment, the target named is T1, Gastricsin (Homo sapiens, UniProt P20142).
T1 sequence (P20142 whole entry): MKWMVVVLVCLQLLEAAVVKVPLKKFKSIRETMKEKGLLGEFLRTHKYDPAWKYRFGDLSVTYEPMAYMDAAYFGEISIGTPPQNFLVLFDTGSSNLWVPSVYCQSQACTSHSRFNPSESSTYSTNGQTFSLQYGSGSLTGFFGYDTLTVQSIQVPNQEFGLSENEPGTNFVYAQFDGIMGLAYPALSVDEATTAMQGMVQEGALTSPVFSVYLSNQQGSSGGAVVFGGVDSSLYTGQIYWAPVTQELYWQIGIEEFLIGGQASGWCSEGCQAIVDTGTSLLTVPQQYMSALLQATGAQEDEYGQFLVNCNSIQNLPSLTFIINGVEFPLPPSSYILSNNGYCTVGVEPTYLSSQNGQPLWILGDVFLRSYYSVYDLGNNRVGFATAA
In words: The compound was tested for its inhibitory activity against human gastricsin.

The target in another experiment is T2, Cathepsin E (Homo sapiens, UniProt P14091).
T2 sequence (P14091 whole entry): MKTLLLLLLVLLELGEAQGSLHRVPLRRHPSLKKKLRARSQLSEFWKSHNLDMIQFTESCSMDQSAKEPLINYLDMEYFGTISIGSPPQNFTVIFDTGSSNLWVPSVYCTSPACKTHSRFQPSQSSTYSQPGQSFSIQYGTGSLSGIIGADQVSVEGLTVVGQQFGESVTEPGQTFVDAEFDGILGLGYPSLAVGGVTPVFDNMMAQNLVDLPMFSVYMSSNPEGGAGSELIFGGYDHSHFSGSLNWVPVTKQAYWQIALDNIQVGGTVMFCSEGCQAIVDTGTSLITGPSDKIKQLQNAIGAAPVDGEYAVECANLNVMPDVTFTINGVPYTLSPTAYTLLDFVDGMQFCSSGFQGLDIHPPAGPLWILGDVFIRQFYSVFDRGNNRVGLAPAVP
Briefly: The compound was tested for its inhibitory activity against human cathepsin E.

For a further experiment, the target named is T3, Renin (Homo sapiens, UniProt P00797).
T3 sequence (P00797 whole entry): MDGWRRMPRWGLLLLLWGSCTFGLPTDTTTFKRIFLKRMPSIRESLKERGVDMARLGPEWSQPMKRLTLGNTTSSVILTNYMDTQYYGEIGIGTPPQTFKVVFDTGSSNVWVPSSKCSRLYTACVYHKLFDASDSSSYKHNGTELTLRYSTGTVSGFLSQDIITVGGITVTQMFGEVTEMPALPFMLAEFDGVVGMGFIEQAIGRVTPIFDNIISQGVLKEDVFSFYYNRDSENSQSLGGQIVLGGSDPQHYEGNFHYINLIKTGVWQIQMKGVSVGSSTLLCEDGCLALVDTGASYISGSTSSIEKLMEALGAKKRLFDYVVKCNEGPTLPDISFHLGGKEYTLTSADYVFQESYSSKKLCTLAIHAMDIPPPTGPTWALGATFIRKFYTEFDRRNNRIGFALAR
Briefly: The compound was tested for its inhibitory activity against human renin.

Sequence of Cathepsin D (P07339 65-162 limits assumed): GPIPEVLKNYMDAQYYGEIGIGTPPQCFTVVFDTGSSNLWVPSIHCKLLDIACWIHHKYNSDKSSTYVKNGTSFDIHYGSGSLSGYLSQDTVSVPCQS
Sequence of Cathepsin D (P07339 169-412 limits assumed): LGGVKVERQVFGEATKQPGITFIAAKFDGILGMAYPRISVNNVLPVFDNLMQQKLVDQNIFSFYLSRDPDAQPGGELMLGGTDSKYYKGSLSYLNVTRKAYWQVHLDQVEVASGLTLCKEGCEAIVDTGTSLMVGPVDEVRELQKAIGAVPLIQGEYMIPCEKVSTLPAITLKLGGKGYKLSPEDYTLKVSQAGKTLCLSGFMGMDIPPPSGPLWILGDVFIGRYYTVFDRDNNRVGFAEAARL

`Cc1cn([C@H]2C[C@H](N=[N+]=[N-])[C@@H](CO)O2)c(=O)[nH]c1=O` [ZIDOVUDINE] came in with an ED90 with MT2 of 300 nM.

Regarding `CC(C)[C@H](NC(=O)Cc1cccnc1)C(=O)N[C@@H](Cc1ccccc1)[C@@H](O)CN(Cc1ccccc1)NC(=O)[C@H](NC(=O)Cc1cccnc1)C(C)C`, in experiment [1], 500 nM corresponded to half-maximal inhibition (IC50).

Regarding `CC(C)[C@H](N)C(=O)N[C@@H](Cc1ccccc1)[C@@H](O)CN(Cc1ccccc1)NC(=O)[C@H](N)C(C)C`, the IC50 (as a rule, the midpoint of a concentration-inhibition curve) in experiment [1] is more than 100000 nM. Further, in experiment [2], the inhibition – broadly, the change of the read-out against control, counted positive when it falls – is 32%.

Take `CC(C)[C@H](NC(=O)c1ccc2ccccc2n1)C(=O)N[C@@H](Cc1ccccc1)[C@@H](O)CN(Cc1ccccc1)NC(=O)[C@H](NC(=O)c1ccc2ccccc2n1)C(C)C`: in experiment [1], the midpoint of inhibition, the IC50, lay at 65 nM.

Take `CC(C)[C@H](NC(=O)OC(C)(C)C)C(=O)N[C@@H](Cc1ccccc1)[C@@H](O)CN(Cc1ccccc1)NC(=O)[C@H](NC(=O)OC(C)(C)C)C(C)C`: in experiment [1], the midpoint of inhibition, the IC50, lay at 52000 nM.

In experiment [3], `CC(=O)N[C@H](C(=O)N[C@@H](Cc1ccccc1)[C@@H](O)CN(Cc1ccccc1)NC(=O)[C@H](NC(C)=O)C(C)C)C(C)C` came in with an ED90 of 10000 nM. The IC50 in experiment [1] is 30 nM.

In the case of `CC(C)[C@H](NC(=O)OCc1ccccc1)C(=O)NN(Cc1ccccc1)C[C@H](O)[C@H](Cc1ccccc1)NC(=O)[C@H](NC(=O)OCc1ccccc1)C(C)C`, the IC50 in experiment [1] is more than 100000 nM. For the same compound, the inhibition in experiment [2] stood at 40%.

In turn, `CC(C)[C@H](NC(=O)OCc1ccccc1)C(=O)N[C@@H](Cc1ccccc1)[C@@H](O)CN(Cc1ccccc1)NC(=O)[C@H](NC(=O)OCc1ccccc1)C(C)C` yielded an ED90 in experiment [3] of 100 nM. In addition, 33 nM corresponded to half-maximal inhibition in experiment [1] (IC50).

As to `CC(C)[C@H](NC(=O)OCc1ccccc1)C(=O)N[C@@H](Cc1ccccc1)[C@@H](O)CN(Cc1ccc(F)cc1)NC(=O)[C@@H](NC(=O)OCc1ccccc1)C(C)C`, in experiment [3], the ED90 turned out to be 1000 nM. This compound also gave an IC50 in experiment [1] of 22 nM.

As for `CC(C)[C@H](NC(=O)N1CCOCC1)C(=O)N[C@@H](Cc1ccccc1)[C@@H](O)CN(Cc1ccccc1)NC(=O)[C@H](NC(=O)N1CCOCC1)C(C)C`, it took 2000 nM to reach half-maximal inhibition in experiment [1] (IC50).

For `CC(=O)N[C@H](C(=O)N[C@@H](Cc1ccccc1)[C@@H](O)CN(Cc1ccc(C#N)cc1)NC(=O)[C@@H](NC(C)=O)C(C)C)C(C)C`, the ED90 in experiment [3] is more than 10000 nM. In experiment [1], this compound showed an IC50 of 50 nM.

The compound `CC(=O)N[C@H](C(=O)N[C@@H](Cc1ccccc1)[C@@H](O)CN(CC(C)C)NC(=O)[C@@H](NC(C)=O)C(C)C)C(C)C` came in with an ED90 in experiment [3] of more than 1000 nM. The IC50 in experiment [1] came out at 45 nM.

The compound `CC(=O)N[C@H](C(=O)N[C@@H](Cc1ccccc1)[C@@H](O)CN(Cc1ccc(F)cc1)NC(=O)[C@@H](NC(C)=O)C(C)C)C(C)C` gave an ED90 in experiment [3] of 10000 nM. In experiment [1], this compound registered an IC50 of 28 nM.

Consider `CC(C)[C@H](NC(=O)OCc1ccccc1)C(=O)N[C@@H](Cc1ccccc1)[C@@H](O)CN(CC1CCCCC1)NC(=O)[C@@H](NC(=O)OCc1ccccc1)C(C)C`, for which, in experiment [3], the ED90 came out at 1000 nM. Further, half-maximal inhibition in experiment [1] (IC50) was put at 95 nM.

For the compound `CC(C)[C@H](NC(=O)OCc1ccccc1)C(=O)N[C@@H](Cc1ccccc1)[C@@H](O)CN(Cc1ccc(C#N)cc1)NC(=O)[C@@H](NC(=O)OCc1ccccc1)C(C)C`, in experiment [3], the ED90 came out at 100 nM. In experiment [1], the IC50 was 24 nM.

`CC(=O)N[C@H](C(=O)N[C@@H](Cc1ccccc1)[C@@H](O)CN(CC1CCCCC1)NC(=O)[C@@H](NC(C)=O)C(C)C)C(C)C` displayed an ED90 in experiment [3] of 1000 nM. Moreover, the IC50 is 9 nM in experiment [1]; 7500 nM against Cathepsin D; 1000 nM at Gastricsin; 2000 nM against Cathepsin E; more than 58000 nM against Renin.

Compound `CC(C)CN(C[C@H](O)[C@H](Cc1ccccc1)NC(=O)[C@@H](NC(=O)OCc1ccccc1)C(C)C)NC(=O)[C@@H](NC(=O)OCc1ccccc1)C(C)C` returned an ED90 in experiment [3] of more than 1000 nM. Further, the IC50 in experiment [1] was 10 nM.

Consider `CC(C)(C)OC(=O)N[C@@H](Cc1ccccc1)[C@@H](O)CN(Cc1ccccc1)NC(=O)OC(C)(C)C`, for which the IC50 in experiment [1] is approximately 50000 nM.

In experiment [1], `CC(C)[C@H](NC(=O)Cc1ccccc1)C(=O)N[C@@H](Cc1ccccc1)[C@@H](O)CN(Cc1ccccc1)NC(=O)[C@H](NC(=O)Cc1ccccc1)C(C)C` returned an IC50 of 360 nM.
